Columns and labels:
[1] = test system: neurons of dorso-median raphe nucleus; assay: Whole-cell patch-clamp recordings on brain slices, current clamp; type: cell-based, mouse
[2] = test system: corticosterone-treated mice; assay: Forced Swimming test (FST), chronic administration; type: in vivo; details: chronic 1mg/kg ip daily
Method: (§1) Three well-established mouse models of depression-like behavior have been used in the present study namely i- the long-term corticosterone treatment in the drinking water (David, Samuels et al. 2009), ii- the peripheral administration of LPS (O'Connor, Lawson et al. 2009) iii- the ApN^-/- mice (Liu, Guo et al. 2012). For chronic AdipoRon treatment, the experimental protocol was as followed: • i- Five weeks old male mice (five/cage) received corticosterone (35mg/L dissolved in tap water containing 4 g/L CD) or vehicle alone ad libitum for during 7 consecutive weeks (David, Samuels et al. 2009). Corticosterone and vehicle solutions were changed every 3 days to prevent possible degradation. […]
(§2) All behavioral testing were conducted during the light phase (between 09:00 and 14:00 am) in compliance with the Institutional Animal Care and Use Committee of the University of Nice-Sophia Antipolis (permission number 010344.01 from the French "Ministère de l'Enseignement Supérieur et de la Recherche" granted to Dr. Joëlle Chabry). • Forced Swimming test (FST) - Mice were placed an inescapable transparent tank (20cm diameter, 30cm deep) filled with water (23°C ± 0.5) for six minutes as previously described by Porsolt et al. (1977). […] To initiate testing, mice were placed into the light side and activity was recorded for 5 minutes. […]

[3] = target: T1, AdipoRl (Homo sapiens, UniProt Q96A54); details: Okada-Iwabu, Yamauchi et al. 2013; cited from earlier work
T1 sequence (Q96A54 1-375): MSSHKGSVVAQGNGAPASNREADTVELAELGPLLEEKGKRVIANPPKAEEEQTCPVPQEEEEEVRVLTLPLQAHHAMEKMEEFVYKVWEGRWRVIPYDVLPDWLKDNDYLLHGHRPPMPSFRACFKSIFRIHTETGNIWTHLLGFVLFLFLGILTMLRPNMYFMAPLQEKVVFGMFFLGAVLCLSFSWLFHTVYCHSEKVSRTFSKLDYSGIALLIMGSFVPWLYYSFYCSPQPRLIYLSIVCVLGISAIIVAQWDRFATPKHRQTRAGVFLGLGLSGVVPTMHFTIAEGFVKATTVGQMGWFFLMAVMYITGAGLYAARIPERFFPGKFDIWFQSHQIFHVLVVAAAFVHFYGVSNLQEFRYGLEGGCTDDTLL

[4] = Weight, food and water intake under chronic treatment; type: in vivo, mice; details: chronic AdipoRon treatment
Method: Three well-established mouse models of depression-like behavior have been used in the present study namely i- the long-term corticosterone treatment in the drinking water (David, Samuels et al. 2009), ii- the peripheral administration of LPS (O'Connor, Lawson et al. 2009) iii- the ApN^-/- mice (Liu, Guo et al. 2012). For chronic AdipoRon treatment, the experimental protocol was as followed: • i- Five weeks old male mice (five/cage) received corticosterone (35mg/L dissolved in tap water containing 4 g/L CD) or vehicle alone ad libitum for during 7 consecutive weeks (David, Samuels et al. 2009). Corticosterone and vehicle solutions were changed every 3 days to prevent possible degradation. Additionally, during the last three weeks of corticosterone treatment, mice were daily intraperitoneally (ip) injected with AdipoRon (1mg/kg in 2.5% DMSO) or vehicle alone. • ii- Eight weeks old male mice daily ip injected with AdipoRon or vehicle as described above for twenty consecutive days. One day prior behavioral testing, mice were injected ip with LPS (0.83 mg/kg) or saline solution; the LPS dose was selected on the basis of its ability to induce the full spectrum of the acute sickness and depressive-like behaviors (Lestage, Verrier et al. 2002).

[5] = test system: corticosterone-treated mice; assay: Social interaction test, chronic administration; type: in vivo; details: chronic 1mg/kg ip daily
Method: as §1, §2

[6] = test system: wt and depression-like mouse models; assay: Forced Swimming test (FST), acute administration; type: in vivo; details: LPS-treated mice (0.83 mg/kg LPS), 1mg/kg ip
Method: as §1, §2

[7] = vehicle-treated mice (no corticosterone)

Compound: O=C(COc1ccc(C(=O)c2ccccc2)cc1)NC1CCN(Cc2ccccc2)CC1 [AdipoRon, 2-(4-Benzoylphenoxy)-N-[1-(phenylmethyl)-4-piperidinyl]-acetamide]
- action potential discharge ([1]; 1/7 presumed serotoninergic neuron, current clamp): no effect
- membrane potential ([1]; 6 out of 7 presumed serotoninergic neurons, current clamp): small depolarization
- action potential discharge frequency ([1]; 6 out of 7 presumed serotoninergic neurons, current clamp, N= 4 mice): increase in action potential discharge frequency
- membrane potential ([1]; presumed non-serotoninergic neurons, 2/4): hyperpolarization
- membrane potential ([1]; presumed non-serotoninergic neurons, the other 2/4): no effect
- immobility duration in the FST (resignation) ([2]; corticosterone-treated mice): reversed the effect of corticosterone
- immobility duration in the FST (resignation) [2, 7]: no significant effect
- binding to adiponectin receptor [3]: bind
- food and water intake [4]: did not significantly modify
- weight of mice [4]: did not significantly modify
- social interactions ([5]; corticosterone-treated mice): reversed the effect of corticosterone
- social interactions [5, 7]: no significant effect
- immobility time in the FST [6]: significantly to reducing this parameter

Source: patent EP3431468B1, “USE OF ADIPONECTIN RECEPTOR AGONISTS IN TREATING DEPRESSION, ANXIETY AND NEUROINFLAMMATION” (CENTRE NATIONAL DE LA RECHERCHE SCIENTIFIQUE, priority 2017, dated 2019)
